For experiment [1], the system named is T1, apoptosome (Nluc/Apaf-1 + Cluc/Apaf-1, cytochrome c, dATP).
T1 construct: gene APAF1; Apaf-1 XL fused by Gly/Ser linker to firefly luciferase fragments (Nluc 1-416; Cluc 394-550 in legend, 395-550 in methods), expressed in HEK 293, S-100 extract
As to the kind of experiment: split-luciferase complementation in S-100 extract. The class given is biochemical, Homo sapiens. To be noted: 1.6 uM cytochrome c, 1 mM dATP, 25 °C; unreliable (reporter interference). From the text:
split-luciferase complementation in S-100 extract on apoptosome (Nluc/Apaf-1 + Cluc/Apaf-1, cytochrome c, dATP)

For experiment [2] the test system is unchanged. Kind of experiment: split-luciferase complementation in S-100 extract. The class given is biochemical, Homo sapiens.
The next experiment concerns T2, cytochrome c.
T2 construct: gene CYCS
Kind of experiment: thermal stability shift, soluble protein by Coomassie SDS-PAGE. The class given is binding. Particulars: destabilization at 58 °C, 1 mg/mL cytochrome c.

Experiment [3] concerns the target T3, Cluc-Apaf1 (Apaf-1 XL fused to the C-terminal fragment of firefly luciferase) (human), O14727.
T3 chain: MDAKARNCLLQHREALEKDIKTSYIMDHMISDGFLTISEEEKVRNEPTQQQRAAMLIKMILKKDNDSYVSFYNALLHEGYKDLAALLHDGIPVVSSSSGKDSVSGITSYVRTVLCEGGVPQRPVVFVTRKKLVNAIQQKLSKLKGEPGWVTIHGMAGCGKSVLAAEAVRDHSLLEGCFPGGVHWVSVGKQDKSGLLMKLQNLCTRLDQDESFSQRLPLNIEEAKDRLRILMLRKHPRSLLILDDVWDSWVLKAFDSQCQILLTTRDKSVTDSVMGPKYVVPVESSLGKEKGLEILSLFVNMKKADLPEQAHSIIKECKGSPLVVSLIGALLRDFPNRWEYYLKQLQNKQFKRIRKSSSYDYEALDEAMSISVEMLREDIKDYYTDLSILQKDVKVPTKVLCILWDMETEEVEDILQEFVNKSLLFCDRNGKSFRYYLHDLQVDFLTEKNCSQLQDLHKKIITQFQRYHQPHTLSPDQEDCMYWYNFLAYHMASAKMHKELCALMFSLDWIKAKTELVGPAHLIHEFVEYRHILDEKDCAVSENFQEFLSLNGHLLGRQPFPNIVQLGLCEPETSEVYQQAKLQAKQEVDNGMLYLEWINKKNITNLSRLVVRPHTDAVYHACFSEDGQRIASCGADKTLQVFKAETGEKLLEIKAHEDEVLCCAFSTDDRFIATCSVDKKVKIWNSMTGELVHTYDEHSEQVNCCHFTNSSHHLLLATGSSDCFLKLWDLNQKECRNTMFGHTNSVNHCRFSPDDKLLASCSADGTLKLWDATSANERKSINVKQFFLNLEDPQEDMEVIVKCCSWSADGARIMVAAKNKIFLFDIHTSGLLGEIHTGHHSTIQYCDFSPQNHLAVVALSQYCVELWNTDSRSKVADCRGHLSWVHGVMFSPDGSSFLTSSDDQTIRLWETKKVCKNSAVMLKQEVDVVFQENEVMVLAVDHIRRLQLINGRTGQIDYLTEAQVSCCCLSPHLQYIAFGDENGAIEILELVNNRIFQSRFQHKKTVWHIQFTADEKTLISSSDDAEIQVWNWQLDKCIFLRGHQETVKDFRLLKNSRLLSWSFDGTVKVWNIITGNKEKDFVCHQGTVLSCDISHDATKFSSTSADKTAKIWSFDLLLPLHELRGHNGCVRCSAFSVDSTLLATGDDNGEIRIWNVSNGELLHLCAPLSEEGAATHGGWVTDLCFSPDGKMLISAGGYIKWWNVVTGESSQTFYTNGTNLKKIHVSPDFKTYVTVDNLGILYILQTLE
Kind of experiment: split reporter (BiFC, NanoBiT); split firefly luciferase complementation; ice-cold S-100 extracts of Nluc-Apaf1 and Cluc-Apaf1 cells mixed 1:1, with and without 1.6 μM cytochrome c and 1 mM dATP (cytochrome c titrated in one experiment); One-Glo Luciferase Assay System, light read at 25 °C over 15 min. To be noted: remark: other sources report otherwise.

Like-named read-outs stand apart in the source and are kept apart here.

Turning to `Clc1nc(Cl)nc(Nc2ccccc2Cl)n1` [Anilazine], the “IC50 (mM) / S. luc” value in experiment [1] worked out at 2.99 mM.

Take `O=C(Nc1cccc(C(F)(F)F)c1)Nc1cc(Cl)ccc1C(=O)O` [NS3694, 4‐chloro‐2‐[[3‐(trifluoromethyl)phenyl]carbamoylamino]benzoic acid]: in experiment [2] (diluted extract, cytochrome c and dATP added, read-out: IC50), the IC50 is approximately 0.17 mM.

On to `Oc1c(Cl)c(Cl)c(Cl)c(Cl)c1Cl` [Pentachlorophenol], for which, in the experiment with cytochrome c, the EC50 (in general, the concentration that produces a half-maximal response) is approximately 600 µM. Besides, in experiment [2] (1.6 uM cytochrome c, 1 mM dATP, 25 °C, site assigned to cytochrome c, read-out: IC50 (mM) / S. luc), the IC50 is 0.17 mM.

On to `CN(C)C1CSSSC1` [Thiocyclam], for which the “IC50 (mM) / S. luc” value in experiment [1] is 0.20 mM.

As for `CN(C)C(=S)SSC(=S)N(C)C` [Thiram], the “IC50 (mM) / S. luc” value in experiment [1] is given as 1.38 mM.

B1: Nluc-Apaf1 (Apaf-1 XL fused to the N-terminal fragment of firefly luciferase), O14727-1 1-1248 (natural protein)
chain: T3 chain
B1 displayed an EC50 of cytochrome c for split luciferase activity in experiment [3] of 0.15 µM.

(Values after publication PMC6609562, “A new split‐luciferase complementation assay identifies pentachlorophenol as an inhibitor of apoptosome formation” (FEBS Open Bio, 2019).)
